Test results taken from patent US10711033B2, “Branched chain-containing aromatic compound” (AJINOMOTO CO., INC., priority 2010, dated 2020).

Test: Solubility (20° C.) of branched chain-containing and straight chain-containing aromatic compounds in various solvents
Conditions: for solubility in CPME: saturated in CPME (cyclopentylmethylether) at 20° C.; for solubility in chloroform: saturated in chloroform at 20° C.; for solubility in ethyl acetate: saturated in ethyl acetate at 20° C.; for solubility in isopropyl acetate: saturated in isopropyl acetate at 20° C.; for solubility in toluene: saturated in toluene at 20° C.

Compound | solubility in CPME [wt %] | solubility in chloroform [wt %] | solubility in ethyl acetate [wt %] | solubility in isopropyl acetate [wt %] | solubility in toluene [wt %]
CCCCCCCCCCCCCCCCCCOc1cc(CO)cc(OCCCCCCCCCCCCCCCCCC)c1OCCCCCCCCCCCCCCCCCC [Comparative Example 1] | 4.5 | 9.9 | 0.2 | 0.02 | 2.6
TERGITOL-Adduct of 3-hydroxymethylphenol [Example 21] | >50 | >50 | >50 |  | 

The remaining lines, values ahead:

solubility in CPME [wt %] | solubility in chloroform [wt %] | solubility in ethyl acetate [wt %] | solubility in isopropyl acetate [wt %] | solubility in toluene [wt %] | Compound
>50 | >50 | >50 | >50 | >50 | 3,4,5-tri(2′,3′-dihydrophytyloxy)benzyl alcohol [Example 5]
 |  | 0.3 | 0.06 |  | CCCCCCCCCCCCCCCCCCCCCCOc1ccc(CO)c(OCCCCCCCCCCCCCCCCCCCCCC)c1 [compound 2]
0.01 | 0.8 | 0.2 | 0.1 | 0.01 | CCCCCCCCCCCCCCCCCCCCCCOc1ccc(C(N)c2ccc(C)cc2)cc1 (centres unmarked) [compound 3]
